# Where two headings read alike, the source gives them in different places.
# Tests used:
# RORγt [1] = molecular target: T1, RORγt (Homo sapiens, UniProt P51449); assay: Cofactor recruitment test (Alpha Screen, biotinylated SRC-1 peptide); assay type: biochemical; details: read-out: Signal value inhibitory rate at test compound 1 μM (%)
# T1 sequence (P51449 1-497 isoform P51449-2): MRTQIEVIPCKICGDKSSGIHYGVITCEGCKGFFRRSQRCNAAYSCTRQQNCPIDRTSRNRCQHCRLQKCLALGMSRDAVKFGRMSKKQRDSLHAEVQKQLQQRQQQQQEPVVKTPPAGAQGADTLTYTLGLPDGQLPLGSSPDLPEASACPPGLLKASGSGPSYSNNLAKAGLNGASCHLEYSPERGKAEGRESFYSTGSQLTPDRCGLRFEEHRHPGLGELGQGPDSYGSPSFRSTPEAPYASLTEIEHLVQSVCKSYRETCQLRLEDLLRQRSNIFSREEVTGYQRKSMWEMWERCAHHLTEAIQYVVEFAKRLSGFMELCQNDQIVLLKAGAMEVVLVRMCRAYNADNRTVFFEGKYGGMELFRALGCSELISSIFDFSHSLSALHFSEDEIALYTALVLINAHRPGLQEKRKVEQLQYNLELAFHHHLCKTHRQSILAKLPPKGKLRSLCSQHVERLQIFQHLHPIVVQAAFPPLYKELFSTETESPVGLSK
# Protocol: Cofactor Recruitment Test
# Cofactor recruitment test was performed by Alpha Screen (Histidine Detection Kit, PerkinElmer) method. First, a test compound was diluted with an assay buffer (50 mM Tris-HCl (pH 7.5), 50 mM KCl, 1 mM DTT, 0.1% BSA) and added to a 384 well plate by 5 μL. […] The mixture was stood in a dark place for 1 hr, and the signal value was measured by Envision (PerkinElmer).
# RORγt [2] = molecular target: T1, RORγt; assay: Jurkat reporter test (human IL-17 ROR response element luciferase, RORγt vector); assay type: cell-based; details: read-out: Luminescence level inhibitory rate at test compound 3 μM (%)
# Protocol: The Jurkat cells used for the reporter test were cultured in a culture medium (RPMI (Invitrogen), 10% FCS (AusGeneX), 100 U/mL penicillin, 100 μg/mL streptomycin). On the day of the test, 4×10^7 cells were recovered by a centrifugal operation (1000 rpm, 5 min.) and suspended in PBS (phosphate buffered saline) (Invitrogen). Thereafter, the cells were recovered again by a centrifugal operation, and suspended in 2 mL of R buffer (NEON transfection kit, Invitrogen). […] Gene transfer was performed by Electroporation apparatus (NEON, Invitrogen) under the conditions of pulse voltage 1350 V, interval 10 milliseconds, number of times 3. The cells after gene transfer were suspended in 40 mL of a reaction medium (RPMI, 10% Lipid reduced FCS (HyClone), 10 mM HEPES (pH 7.5), 100 U/mL penicillin, 100 μg/mL streptomycin, 5 μM lovastatin), and plated in a 96 well plate by 90 μL. A test compound diluted with the reaction medium was added by 10 μL, and the cells were cultured overnight in an incubator. Bright-Glo (Promega) was added by 100 μL, and the mixture was stirred at room temperature for 10 min, and the luminescence level was measured by Envision (PerkinElmer).
# RORγt [3] = molecular target: T1, RORγt; assay: RORγt binding test using fluorescent-labeled cholesterol (TR-FRET); details: read-out: Binding inhibitory rate of fluorescent-labeled cholesterol to RORγt at test compound 1 μM (%)
# Protocol: RORγt Binding Test Using Fluorescent-labeled Cholesterol
# The binding activity of the test compound to RORγt was measured by a time resolved fluorescence resonance energy transfer method (TR-FRET) utilizing histidine-tagged RORγt, fluorescent-labeled cholesterol (BODIPY-cholesterol, AVIVA), and terbium-labeled anti-histidine tag antibody (Invitrogen). First, a test compound diluted with an assay buffer (20 mM Tris-HCl (pH 7.5), 100 mM NaCl, 1 mM DTT, 0.1% BSA) was added to a 384 well plate by 3 μL. Then, RORγt diluted with an assay buffer to 240 nM was added by 3 μL, after which fluorescent-labeled cholesterol diluted with the assay buffer to 12 μM was added by 3 μL, and the mixture was stood at room temperature for 20 min. Thereafter, a terbium-labeled anti-histidine tag antibody diluted with the assay buffer to 8 nM was added by 3 μL. The mixture was stood at room temperature for 20 min, and fluorescence intensity (excitation wavelength 320 nm, fluorescence wavelength 520 nm, delay time 100 microseconds) was measured by Envision (PerkinElmer).
# [4] = test compound 3 μM, Jurkat cells
inhibition at 1 µM (RORγt [1]),inhibition at 3 µM (RORγt [2]; [4]),inhibition at 1 µM (RORγt [3]),Compound,inhibition at 3 µM (RORγt [2]; Jurkat)
86%,99%,97%,"CCOCC(C)(C)c1c(F)cc(NC(=O)[C@H]2c3ccc(OCC)cc3CCN2C(=O)Cc2cc(O)no2)cc1F [Example 168, (1R)-6-ethoxy-N-(4-(1-ethoxy-2-methylpropan-2-yl)-3,5-difluorophenyl)-2-((3-hydroxy-1,2-oxazol-5-yl)acetyl)-1,2,3,4-tetrahydroisoquinoline-1-carboxamide]",
96%,101%,101%,"CCOc1ccc2c(c1)CCN(C(=O)Cc1cc(O)no1)[C@H]2C(=O)Nc1cc(F)c(C(C)(C)COC)c(F)c1 [Example 165, (1R)-N-(3,5-difluoro-4-(1-methoxy-2-methylpropan-2-yl)phenyl)-6-ethoxy-2-((3-hydroxy-1,2-oxazol-5-yl)acetyl)-1,2,3,4-tetrahydroisoquinoline-1-carboxamide]",
77.3%,101%,100%,"COc1ccc2c(c1)CCN(C(=O)c1cc(O)no1)C2C(=O)Nc1ccc(C(C)(C)C)c(F)c1 (stereo not drawn) [Example 9, N-(4-tert-butyl-3-fluorophenyl)-2-((3-hydroxy-1,2-oxazol-5-yl)carbonyl)-6-methoxy-1,2,3,4-tetrahydroisoquinoline-1-carboxamide]",
82%,99.8%,102%,"COc1ccc2c(c1)CCN(C(=O)CCO)[C@H]2C(=O)Nc1ccc(C(C)(C)C)c(F)c1 [Example 30, (1R)-N-(4-tert-butyl-3-fluorophenyl)-2-(3-hydroxypropanoyl)-6-methoxy-1,2,3,4-tetrahydroisoquinoline-1-carboxamide]",
92%,100%,101%,"COc1ccc2c(c1)CCN(C(=O)CC#N)[C@H]2C(=O)Nc1cc(F)c(C(C)(C)C)c(F)c1 [Example 84, (1R)-N-(4-tert-butyl-3,5-difluorophenyl)-2-(cyanoacetyl)-6-methoxy-1,2,3,4-tetrahydroisoquinoline-1-carboxamide]",
82.4%,99.3%,103%,"COc1ccc2c(c1)CCN(C(=O)c1cc(O)no1)C2C(=O)Nc1cc(F)c(C(C)(C)C)c(F)c1 (stereo not drawn) [Example 12, N-(4-tert-butyl-3,5-difluorophenyl)-2-((3-hydroxy-1,2-oxazol-5-yl)carbonyl)-6-methoxy-1,2,3,4-tetrahydroisoquinoline-1-carboxamide]",
67.7%,99.7%,103%,"COc1ccc2c(c1)CCN(C(=O)c1cc(O)no1)C2C(=O)Nc1cc(F)c2c(c1)CCC2(C)C (stereo not drawn) [Example 11, N-(7-fluoro-1,1-dimethyl-2,3-dihydro-1H-inden-5-yl)-2-((3-hydroxy-1,2-oxazol-5-yl)carbonyl)-6-methoxy-1,2,3,4-tetrahydroisoquinoline-1-carboxamide]",
82%,98%,100%,"COc1ccc2c(c1)CCN(C(=O)c1cc(O)no1)[C@H]2C(=O)Nc1cc(F)c(C(C)(C)COCC(F)F)c(F)c1 [Example 160, (1R)-N-(4-(1-(2,2-difluoroethoxy)-2-methylpropan-2-yl)-3,5-difluorophenyl)-2-((3-hydroxy-1,2-oxazol-5-yl)carbonyl)-6-methoxy-1,2,3,4-tetrahydroisoquinoline-1-carboxamide]",
81.9%,101%,100%,"CCOc1ccc2c(c1)CCN(C(=O)Cc1cc(O)no1)C2C(=O)Nc1ccc(C(C)(C)C)c(F)c1 (stereo not drawn) [Example 54, N-(4-tert-butyl-3-fluorophenyl)-6-ethoxy-2-((3-hydroxy-1,2-oxazol-5-yl)acetyl)-1,2,3,4-tetrahydroisoquinoline-1-carboxamide]",
76%,93%,101%,"COc1ccc2c(c1)CCN(C(=O)c1cc(O)no1)[C@H]2C(=O)Nc1cc(F)c(C(C)(C)COCC2CC2)c(F)c1 [Example 158, (1R)-N-(4-(1-(cyclopropylmethoxy)-2-methylpropan-2-yl)-3,5-difluorophenyl)-2-((3-hydroxy-1,2-oxazol-5-yl)carbonyl)-6-methoxy-1,2,3,4-tetrahydroisoquinoline-1-carboxamide]",
96%,101%,101%,"CCOc1ccc2c(c1)CCN(C(=O)CCCC(=O)O)[C@H]2C(=O)Nc1cc(F)c(C(C)(C)COC)c(F)c1 [Example 164, 5-((1R)-1-((3,5-difluoro-4-(1-methoxy-2-methylpropan-2-yl)phenyl)carbamoyl)-6-ethoxy-3,4-dihydroisoquinolin-2(1H)-yl)-5-oxopentanoic acid]",

Compound,inhibition at 1 µM (RORγt [1]),inhibition at 3 µM (RORγt [2]; [4]),inhibition at 1 µM (RORγt [3]),inhibition at 3 µM (RORγt [2]; Jurkat)
"COc1ccc2c(c1)CCN(C(=O)Cc1cc(O)no1)[C@H]2C(=O)Nc1cc(F)c([Si](C)(C)C)c(F)c1 [Example 85, (1R)-N-(3,5-difluoro-4-(trimethylsilyl)phenyl)-2-((3-hydroxy-1,2-oxazol-5-yl)acetyl)-6-methoxy-1,2,3,4-tetrahydroisoquinoline-1-carboxamide]",99%,,103%,101%
"COc1ccc2c(n1)CCN(C(=O)Cc1cc(O)no1)[C@H]2C(=O)Nc1cc(F)c([Si](C)(C)C)c(F)c1 [Example 124, (5R)-N-(3,5-difluoro-4-(trimethylsilyl)phenyl)-6-((3-hydroxy-1,2-oxazol-5-yl)acetyl)-2-methoxy-5,6,7,8-tetrahydro-1,6-naphthyridine-5-carboxamide]",99%,,101%,102%
"CC[Si](C)(C)c1c(F)cc(NC(=O)[C@H]2c3ccc(OC)cc3CCN2C(=O)CCC(=O)O)cc1F [Example 87, 4-((1R)-1-((4-(ethyl (dimethyl)silyl)-3,5-difluorophenyl)carbamoyl)-6-methoxy-3,4-dihydroisoquinolin-2 (1H)-yl)-4-oxobutanoic acid]",98%,,102%,102%
"COc1ccc2c(n1)CCN(C(=O)c1cc(O)no1)[C@H]2C(=O)Nc1cc(F)c([Si](C)(C)C)c(F)c1 [Example 122, (5R)-N-(3,5-difluoro-4-(trimethylsilyl)phenyl)-6-((3-hydroxy-1,2-oxazol-5-yl)carbonyl)-2-methoxy-5,6,7,8-tetrahydro-1,6-naphthyridine-5-carboxamide]",99%,,102%,103%
"COc1ccc2c(c1)CCN(C(=O)c1cc(O)no1)C2C(=O)Nc1ccc([Si](C)(C)C)c(F)c1 (stereo not drawn) [Example 3, N-(3-fluoro-4-(trimethylsilyl)phenyl)-2-((3-hydroxy-1,2-oxazol-5-yl)carbonyl)-6-methoxy-1,2,3,4-tetrahydroisoquinoline-1-carboxamide]",92.7%,,101%,99.6%
"CCOc1ccc2c(n1)CCN(C(=O)c1cc(O)no1)[C@H]2C(=O)Nc1ccc([Si](C)(C)C)c(F)c1 [Example 149, (5R)-2-ethoxy-N-(3-fluoro-4-(trimethylsilyl)phenyl)-6-((3-hydroxy-1,2-oxazol-5-yl)carbonyl)-5,6,7,8-tetrahydro-1,6-naphthyridine-5-carboxamide]",99%,,103%,103%
